We go through two molecules from patent US20160015893A1, “DIRECT PRESSURE-MEDIATED INTRA-BONE DELIVERY SYSTEM FOR CELLULAR THERAPEUTICS” (The United States of America, as represented by the …, priority 2013, published 2016).

Series [1] is described as follows: CT imaging of IB contrast injection (marrow flow, venous drainage, leakage). Format: in vivo, domestic swine (Sus scrofa domesticus). As to the method:
To evaluate flow through the bone marrow cavity, abdominal vessels were identified using iopamidol-370 contrast injected into the distal abdominal aorta via a 5Fr Glidecath (Terumo Medical Corporation, Somerset, N.J.) inserted in the internal carotid artery. To evaluate the anatomy of the veins, iopamidol-370 contrast was injected IB under anesthesia (boluses of 5 or 10 ml at rates of 0.1 to 2.5 ml/s) while scanning with 320-row detector CT (Aquilion ONE™, Toshiba Medical, Japan). Pulmonary artery, carotid artery and intra-marrow pressures were monitored and recorded continuously both during and after injection of contrast media. In select animals, vascular occluders (In Vivo Metric, Healdsburg, Calif.) were placed around the terminal branches of the abdominal aorta to selectively control flow through the internal or external iliac arteries, and around the iliac veins to control venous drainage from the pelvis. […]
To evaluate flow through the marrow and venous drainage, direct intra-bone injection into the hemipelvis with iopamidol-370 contrast was performed under anesthesia with dynamic CT images acquired using a 320-detector row scanner (Aquilion One, Toshiba Medical, Japan). Human CD34+ and swine BM MNCs were labeled with Zirconium-89 (^89Zr), and were then assessed for viability, cell number, and the level of cellular radioactivity.

Series [2] is described as follows: PET/CT in vivo distribution of radioactivity after IV, IB or intra-arterial administration in swine. The arrangement: species or system domestic swine (Sus scrofa domesticus). As to the method:
Animals were heparinzed to an ACT of 300 seconds or greater and were started with deferoxamine IV infusion (5 mg/kg/hr) to chelate any free ^89Zr that may potentially be released from fragmented cells. PET scans were performed using a Gemini TF clinical PET/CT scanner (Philips Medical Systems, Andover, Mass.). Following injection, animals were imaged in 3-dimensional (3D) time-of-flight mode with a spatial resolution of 4.8 mm at the center of the field of view. The images were reconstructed using the default row-action maximum-likelihood algorithm iterative reconstruction, with standard corrections for random, scatter, attenuation, and normalization. Three volumes of interest (VOI) were manually drawn within the swine PET/CT scans. One VOI enclosing the intra-pelvic bone volume near the injection site, another VOI enclosing the extra-pelvic bone volume and the last VOI for the lung volume. The sum of measured activities of the three volumes equals the total injected radioactivity into the swine. Thus, the percent-injected dose (% ID) within each VOI was estimated by dividing each VOI by the sum of the three VOIs and multiplying by 100. The percent-injected dose for each of the three regions is reported herein.

[3] abbreviates: Control group, IB injection without cells, pig 32590, after the first hour.

For the molecule `C[C@H](O)C(=O)Nc1c(I)c(C(=O)NC(CO)CO)c(I)c(C(=O)NC(CO)CO)c1I` [iopamidol-370 contrast, iopamidol-370], the “Contrast distribution on CT” value in series [1] (IB injection at rates exceeding 0.2 ml/s, volumes >10 ml, or by hand) is “extrabone contrast leakage at the site of injection”. Moreover, the “Contrast distribution on dynamic CT” value in series [1] (manual sequential hand intra-bone injection of 5 ml aliquots at two sites in the ipsilateral iliac crest) is on record as “leakage from the initial access site after the first injection as well as immediate drainage into the ipsilateral iliac vein”.

As to ^89Zr-deferoxamine [^89Zr-Df], in series [2] (setting [3]), the “Extra-pelvic bone VOI (Max)” value worked out at 91.45, the “Extra-pelvic bone VOI (Mean)” value is listed as 15.32, the “Intra-pelvic bone % ID” value is given as 33.5 % ID and the “Intra-pelvic bone VOI (Max)” value was found to be 338.9. For the same molecule, in series [2] (setting [3]), the “Intra-pelvic bone VOI (Mean)” value was 314.42, the “Intra-pelvic bone total radioactivity” value came out at 1085.85 counts, the “Lung % ID” value stood at 0.0% ID and the “Lung VOI (Mean)” value is given as 0. For the same molecule, the Lung total radioactivity in series [2] (setting [3]) was 0 counts. The “Intra-pelvic bone % ID” value in series [2] (Control group, IB injection without cells, pig 32590, after the first hour, listed as 89Zr—Df) is listed as 33.5% ID. Also, the “Location of radioactivity, fusion PET/CT” value in series [2] (IB injection without cells, 1 hr) is “radioactivity in the renal pelvises and bladder”. Besides, the “Radioactivity within the renal collecting system, ureters and bladder” value in series [2] (IB injection without cells, first hour) is reported as 66.5 % ID. In addition, the Excretion of radioactivity entry in series [2] (IV injection without cells) is “rapid renal excretion”. For the same molecule, the “Retention in the lungs” value in series [2] (IV or IB administration without cells, first hour) is “no retention”.
